Test [1] can be described thus: In vivo antinociceptive activity (A.U.C.), animal pain model. The conditions noted are these: area under the time effect curve. From the text:
*A.U.C. = area under the time effect curve.

The conditions of test [2]: versus morphine; R. Osborne et al., The Lancet, 1988, 828; cited from earlier work.
In test [3] the target is μ1 Receptor (opioid analgesia receptor) (Homo sapiens, UniProt P35372). Type of test: binding. From the text:
compound which displaces 50% of a labelled competitive ligand from […]

Sequence of μ1 Receptor (opioid analgesia receptor) (P35372 whole entry): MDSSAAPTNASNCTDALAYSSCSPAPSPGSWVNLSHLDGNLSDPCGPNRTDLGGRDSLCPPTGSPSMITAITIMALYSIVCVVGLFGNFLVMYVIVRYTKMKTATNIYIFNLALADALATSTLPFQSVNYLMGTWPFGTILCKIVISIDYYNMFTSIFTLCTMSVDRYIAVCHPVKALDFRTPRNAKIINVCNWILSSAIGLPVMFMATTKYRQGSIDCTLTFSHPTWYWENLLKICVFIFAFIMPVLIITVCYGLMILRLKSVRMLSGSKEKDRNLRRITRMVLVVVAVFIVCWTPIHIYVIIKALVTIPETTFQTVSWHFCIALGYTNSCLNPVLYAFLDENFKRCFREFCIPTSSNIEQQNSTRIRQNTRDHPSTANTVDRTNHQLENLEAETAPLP

On to `CN1CC[C@]23c4c5ccc(O)c4O[C@H]2[C@@H](O)C=C[C@H]3[C@H]1C5` [Compound 1, morphine], for which the “In vivo antinociceptive (A.U.C.)” value in test [1] (1 mg) was 197.3; in test [1] (2 mg) it was 241.4; in test [1] (4 mg) it was 738.3.
`CN1CC[C@]23c4c5ccc(O)c4O[C@H]2[C@@H](O[C@@H]2O[C@H](C(=O)O)[C@@H](O)[C@H](O)[C@H]2O)C=C[C@H]3[C@H]1C5` [Compound 2, morphine-6-glucuronide]: the “analgesic power compared with morphine” value in test [2] is on record as “more powerful analgesic than morphine itself”. In addition, the figures for the “In vivo antinociceptive (A.U.C.)” value in test [1] (2 mg) and in test [1] (4 mg) were 209.6 and 618.1, respectively.
`CN1CC[C@]23c4c5ccc(O)c4O[C@H]2[C@@H](O[C@@H]2OC(C(=O)O)=C[C@H](O)[C@H]2O)C=C[C@H]3[C@H]1C5` [Compound 3]: the “In vivo antinociceptive (A.U.C.)” value in test [1] (2 mg) came to 205.0; in test [1] (4 mg), 168.5; in test [1] (8 mg), 175.5.
As to `CN1CC[C@]23c4c5ccc(O)c4O[C@H]2[C@@H](O[C@@H]2O[C@H](C(=O)O)[C@@H](O)[C@H]2O)C=C[C@H]3[C@H]1C5` [Compound 4], the “In vivo antinociceptive (A.U.C.)” value in test [1] (4 mg) is recorded as 238.1; in test [1] (8 mg), 68.3.
Consider `O=C(O)[C@H]1O[C@@H](O[C@H]2C=C[C@H]3[C@H]4Cc5ccc(O)c6c5[C@@]3(CCN4)[C@H]2O6)[C@H](O)[C@@H](O)[C@@H]1O` [Compound 5], for which the “In vivo antinociceptive (A.U.C.)” value in test [1] (2 mg) amounted to 65.6; in test [1] (4 mg) it was 564.8; in test [1] (8 mg), 837.9.
As to `CN1CC[C@]23c4c5ccc(O)c4O[C@H]2[C@@H](O[C@@H]2O[C@H](C(=O)O)[C@@H](O)[C@H](O)[C@H]2O)CC[C@H]3[C@H]1C5` [Compound 6, 1-(7,8-dihydromorphin-6-yl)-β-D-glucopyranosiduronic acid], the “In vivo antinociceptive (A.U.C.)” value in test [1] (1 mg) is 277.4; in test [1] (2 mg) it was 720.4; in test [1] (4 mg) it was 753.3. Besides, the “binding affinity to the receptor (μ1), in words” value in test [3] is on record as “greatest binding affinity to the relevant receptor (μ1)”.

Values taken from patent US5977326A, “Process for making morphine-6-glucuronide or substituted morphine-6-glucuronide” (priority 1991, dated 1999).
